Laboratory results: paper PMC12439166, “Dietary flavonoids form supramolecular assemblies, alter biochemistry, and enhance cell resilience” (Frontiers in Nutrition, 2025)
Entries after “also recorded” stand apart in the source; their conditions may differ.

Tests used:
Format in all cases: biochemical
Settings in all cases: 10 concentrations, 5 nM to 100 μM, compounds incubated with enzyme 30 min, result in words
[1] = biological target: T1, MAP/microtubule affinity-regulating kinase 4 (MARK4) (Homo sapiens, UniProt Q96L34); experiment: Enzyme activity assay (SAMDI-MS), MARK4
T1 sequence (Q96L34 1-752): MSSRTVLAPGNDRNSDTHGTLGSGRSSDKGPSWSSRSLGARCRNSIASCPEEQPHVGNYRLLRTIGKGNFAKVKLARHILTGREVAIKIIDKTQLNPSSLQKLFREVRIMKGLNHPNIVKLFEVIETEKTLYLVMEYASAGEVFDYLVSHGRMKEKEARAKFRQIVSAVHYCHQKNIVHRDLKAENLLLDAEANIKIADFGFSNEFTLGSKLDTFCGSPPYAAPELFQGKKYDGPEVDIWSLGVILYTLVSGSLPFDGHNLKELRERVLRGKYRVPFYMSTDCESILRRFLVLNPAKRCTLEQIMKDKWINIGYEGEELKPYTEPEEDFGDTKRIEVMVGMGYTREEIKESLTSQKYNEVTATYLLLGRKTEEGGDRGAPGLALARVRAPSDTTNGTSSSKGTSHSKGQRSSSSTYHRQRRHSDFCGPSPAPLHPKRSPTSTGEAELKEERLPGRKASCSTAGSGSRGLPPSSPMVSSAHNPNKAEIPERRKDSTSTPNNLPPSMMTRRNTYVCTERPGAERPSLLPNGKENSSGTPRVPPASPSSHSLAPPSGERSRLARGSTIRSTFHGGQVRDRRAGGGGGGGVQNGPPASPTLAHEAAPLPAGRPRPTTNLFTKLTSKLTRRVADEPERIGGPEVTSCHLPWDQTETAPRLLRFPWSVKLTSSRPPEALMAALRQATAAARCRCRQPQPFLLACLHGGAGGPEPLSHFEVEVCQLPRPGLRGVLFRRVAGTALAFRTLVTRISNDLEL
Method: Enzyme screens were performed by SAMDI Tech (contract research organization); enzyme assays were performed in a 20 μL volume in 384-well low-volume polypropylene microtiter plates (Greiner Bio-One) at room temperature. The enzymes [Arginase 1 (ARG1), Lysine demethylase 4C (KDM4C), MAP/microtubule affinity-regulating kinase 4 (MARK4), Histone-Lysine N-methyltransferase (NSD2), Tyrosine-protein phosphatase non-receptor type 1 (PTP1B), and Sirtuin-3 (SIRT3)] were incubated with compounds for 30 min prior to initiation of the reaction by the addition of substrate and cofactors (if required). Reactions were quenched by the addition of 0.5% formic acid (final) with subsequent neutralization using 1% sodium bicarbonate (final). For SAMDI MS analysis, 2 μL of each reaction was transferred using a 384-channel automated liquid handler to SAMDI biochip arrays functionalized with a neutravidin-presenting self-assembled monolayer. The preparation of SAMDI biochip arrays has been previously described ([41], [42], [49]). The SAMDI arrays were incubated for 1 h in a humidified chamber to allow specific immobilization of the biotinylated substrates and products; they were then purified by washing with ultrafiltered water (50 μL/spot) and dried with compressed air. A matrix comprising α-Cyano-4-hydroxycinnamic acid in 80% acetonitrile: 20% aqueous ammonium citrate (10 mg/mL final) was applied in an automated format by dispensing 50 nL to each spot in the array. SAMDI MS was performed using reflector positive mode on an AB Sciex TOF-TOF 5800 System (AB Sciex, Framingham, MA) with 400 shots/spot analyzed in a random raster sampling. For data analysis, the area under the curves (AUCs) for the product peak and substrate peak were calculated using the TOF/TOF Series Explorer (AB Sciex), and the amount of product formed was calculated using the equation AUC product / (AUC product + AUC Substrate). Negative controls were pre-quenched with 0.5% formic acid (final). Lysozyme assay was performed using the manufacturer’s instructions (Biovision Lysozyme inhibitor screening kit K237). Flavonoids were acquired from Sigma-Aldrich and Seleckchem.
IC50 values of enzyme inhibition. Inhibition of the enzymes was measured at 10 concentration values in the range of 5 nM to 100 μM for each compound and enzyme, with two technical replicates; the percent inhibition values were determined by SAMDI software. Sigmoidal curves were fitted to the percent inhibition vs log10 (concentration) series, and IC50 values were determined at the crossing point of 50 % inhibition. […] First, for each IC50 value per compound and enzyme, a Z-score was calculated based on the log10 (IC50) value and that of the compounds that produced a successful readout for enzyme i , according to Equation 1: […]

Arginase 1 (ARG1) = biological target: T2, Arginase 1 (ARG1) (Homo sapiens, UniProt P05089); experiment: Enzyme activity assay (SAMDI-MS), Arginase 1
T2 sequence (P05089 1-322): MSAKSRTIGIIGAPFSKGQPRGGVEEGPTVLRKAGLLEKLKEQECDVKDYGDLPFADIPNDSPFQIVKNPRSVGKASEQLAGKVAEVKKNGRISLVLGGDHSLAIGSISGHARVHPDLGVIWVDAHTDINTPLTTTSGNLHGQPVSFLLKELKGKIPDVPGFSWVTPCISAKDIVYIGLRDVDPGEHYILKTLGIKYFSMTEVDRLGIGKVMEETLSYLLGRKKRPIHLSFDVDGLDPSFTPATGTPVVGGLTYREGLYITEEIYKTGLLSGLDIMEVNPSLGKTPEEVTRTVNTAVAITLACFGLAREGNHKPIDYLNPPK
Method: (§1) Enzyme screens were performed by SAMDI Tech (contract research organization); enzyme assays were performed in a 20 μL volume in 384-well low-volume polypropylene microtiter plates (Greiner Bio-One) at room temperature. The enzymes [Arginase 1 (ARG1), Lysine demethylase 4C (KDM4C), MAP/microtubule affinity-regulating kinase 4 (MARK4), Histone-Lysine N-methyltransferase (NSD2), Tyrosine-protein phosphatase non-receptor type 1 (PTP1B), and Sirtuin-3 (SIRT3)] were incubated with compounds for 30 min prior to initiation of the reaction by the addition of substrate and cofactors (if required). […] SAMDI MS was performed using reflector positive mode on an AB Sciex TOF-TOF 5800 System (AB Sciex, Framingham, MA) with 400 shots/spot analyzed in a random raster sampling. For data analysis, the area under the curves (AUCs) for the product peak and substrate peak were calculated using the TOF/TOF Series Explorer (AB Sciex), and the amount of product formed was calculated using the equation AUC product / (AUC product + AUC Substrate). […]
(§2) IC50 values of enzyme inhibition. Inhibition of the enzymes was measured at 10 concentration values in the range of 5 nM to 100 μM for each compound and enzyme, with two technical replicates; the percent inhibition values were determined by SAMDI software. […]

Sirtuin-3 (SIRT3) = biological target: T3, Sirtuin-3 (SIRT3) (Homo sapiens, UniProt Q9NTG7); experiment: Enzyme activity assay (SAMDI-MS), SIRT3
T3 sequence (Q9NTG7 1-399): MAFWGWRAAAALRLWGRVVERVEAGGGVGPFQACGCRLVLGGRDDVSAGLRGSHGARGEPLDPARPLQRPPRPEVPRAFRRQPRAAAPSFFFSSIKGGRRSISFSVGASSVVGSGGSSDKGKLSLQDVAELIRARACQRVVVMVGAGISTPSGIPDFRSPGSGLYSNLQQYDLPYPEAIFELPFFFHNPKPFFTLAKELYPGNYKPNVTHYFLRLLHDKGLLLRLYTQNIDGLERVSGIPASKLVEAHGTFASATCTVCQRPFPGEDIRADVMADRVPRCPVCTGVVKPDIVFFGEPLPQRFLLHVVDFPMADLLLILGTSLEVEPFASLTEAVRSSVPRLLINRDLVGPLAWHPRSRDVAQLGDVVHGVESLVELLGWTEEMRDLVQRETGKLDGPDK
Method: as §1, §2

Compound	inhibition of enzyme activity, MARK4 [1]	inhibition of enzyme activity, MARK4 ([1]; listed as Quercetin)	inhibition of enzyme activity, MARK4 ([1]; listed as Quercitin)	inhibition of enzyme activity, ARG1 (Arginase 1 (ARG1); listed as Quercetin)	inhibition of enzyme activity, ARG1 (Arginase 1 (ARG1); listed as Quercitin)	inhibition of enzyme activity, SIRT3 (Sirtuin-3 (SIRT3); listed as Quercetin)	inhibition of enzyme activity, SIRT3 (Sirtuin-3 (SIRT3); listed as Quercitin)
O=c1c(O[C@@H]2O[C@H](CO)[C@@H](O)[C@H](O)[C@H]2O)c(-c2ccc(O)c(O)c2)oc2cc(O)cc(O)c12 [isoquercitrin]	inhibited	–	–	–	–	–	–
O=c1c(O)c(-c2ccc(O)c(O)c2)oc2cc(O)cc(O)c12 [quercetin]	–	inhibited	concentration-dependent inhibition	inhibited	concentration-dependent inhibition	inhibited	concentration-dependent inhibition
C[C@@H]1O[C@@H](Oc2c(-c3ccc(O)c(O)c3)oc3cc(O)cc(O)c3c2=O)[C@H](O)[C@H](O)[C@H]1O [quercitrin]	did not affect; also recorded: did not inhibit	–	–	–	–	–	–
